Structures are written as SMILES.

The values that follow come from patent publication US7820692B2, “Tetrahydro isoquinoline derivatives, preparation methods and medicinal uses thereof” (China Pharmaceutical University, priority 2006, dated 2010).

Data set [1] has as its system Kuming mice. Description: Physical dependence test after chronic administration (Naloxone-induced jumping and weight reduction). Type of data set: in vivo. To be noted: escalating 50-300 μg/kg s.c. twice daily for 10 days, then Naloxone 3 mg/kg peritoneally. As for the experimental part:
Kuming mice (18-20 g, male) are selected, and divided into physiological saline group, morphine group, and I-6 group.
physiological saline group: subcutaneous injection, 0.2 mL for each mice, continuous administration for 10 days.
(§1) morphine group: subcutaneous injection, administration according to an escalating dose schedule, 20, 40, 60, 80, 100 mg/kg, continuous administration for 10 days, two injections per day at 8 hours interval, administration with escalating concentration, and 100 mg/kg is maintained from the fifth injection until Day 10.
I-6 group: subcutaneous injection, administration according to an escalating dose schedule, 50, 100, 150, 200, 300 μg/kg, continuous administration for 10 days, two injections per day at 8 hours interval, administration with escalating concentration, and 300 μg/kg is maintained from the fifth injection until Day 10.
2 hours after the end administration on the Day 10, each group is peritoneally administered with Naloxone 3 mg/kg, and jump times and weight reduction of mice within 20 min in each group are observed.

The test system of the next data set is Kunming mice. Description: Acute toxicity test of compound I-6. Type of data set: in vivo. To be noted: peritoneal administration at 30 mg/kg. As for the experimental part:
(§2) Acute toxicity of compound I-6 is determined according to Methodology of Pharmacological Experiment, edition II, Xu Shuyun (People's Medical Publishing House, 1991), and An Introduction of the Assessment for Novel Drugs, edition II, Qin Boyi (People's Medical Publishing House, 1999).
(§3) Kunming mice (body weight 18-22 g, female 6 weeks old, male 4-5 weeks) are provided, randomly divided into groups each having 20 mice (half female, half male). The mice are subjected to adaptive feeding for 1-2 days before administration. Compound I-6 is administered peritoneally for 4 dosage groups, 60 mg/kg, 50 mg/kg, 40 mg/kg, and 30 mg/kg. The mice are normally fed after administration, their conditions, such as drinking, feeding, excreting, activity, and hair color, are observed everyday, their body weights are weighed every other day, and the observation lasts for two weeks.

A short description of data set [2]: Acute toxicity test of compound I-6. The data set is classed as in vivo, mice. To be noted: both sexes, Kunming, mouse, in vivo, intraperitoneal; peritoneal administration, mice, observation two weeks. As for the experimental part:
as §2, §3

Another data set deals with κ-opioid receptor (Homo sapiens, UniProt P41145). Description: Radioligand receptor binding assay, competition with [3H]diprenorphine, κ-receptor. As for the experimental part:
(§4) The experiment test tubes are divided into total binding tubes and non-specific binding tubes, and several groups of sample tubes added with competitive ligand in different concentrations are provided. The total binding tube is added with expressed membrane receptor protein equivalent to 20 μg and [^3H] diprenorphine (0.5 nM) (1.44 Pbq/mol broad spectrum opioid antagonist, Amersham), the corresponding non-specific binding tubes are further added with 1 μM Naloxone (broad spectrum opioid antagonist, Sigma), the sample tubes are added with different concentrations compounds which are to be screened, the final volume is regulated to 100 μl with 50 mM Tris(Amresco)-HCl (pH 7.4). Incubation is performed at 30° C. for 30 min, and the tubes are placed into ice water to stop reaction. Negative pressure filter is performed in Millipore sample collector via GF/(Whatman) glass fiber filter paper. Ice cold 50 mM Tris-HCl (pH 7.4) is used to wash the filter paper for three times, each for 4 ml; Dry the filter paper and place it in 0.5 ml Eppendorff tube, and add 0.5 ml of lipophilic scintillator liquid (Reagent No. 1 Factory Of Shanghai Chemical Reagent Co. Ltd). Beckman LS 6500 multifunctional liquid scintillation counter is adopted for measuring radiation intensity, calculating inhibition rate is calculated, each concentration has three duplicated tubes, and each tube is independently tested for 3-4 times.
(§5) IC50 value is calculated by software Prism 4.0.
(§6) Ki=IC50/(1+[L]/Kd), ([L] is the concentration of added marked ligand, and Kd is equilibrium dissociation constant of radioligand).

The test system of data set [3] is Kuming mice. As to the kind of experiment: Mice hot plate method analgesic test. Type of data set: in vivo. As for the experimental part:
(§7) Analgesic efficacy of the subject compound is determined by using model derived from mice hot plate method and mice writhing method (Methodology of Pharmacological Experiment, edition II, Xu Shuyun, People Medical Publishing Company, 1991).
Experiment Animal: Kuming Mice (Female, 18-22 g)
(§8) • (1) Selection of normal mice: the test room temperature is controlled at about 22° C., temperature of the hot plate of an pain threshold dector is regulated to 55° C., the duration from the moment the mice is put on the hot plate to the moment the mice start to lick the hind paw is recorded as pain threshold value, the test is repeated twice at interval of 20 min, and the mice with average pain threshold value no more than 30 sec is qualified mice. • (2) Experimental mice: the qualified mice are randomly divided into groups each having 10 mice, and subjected to subcutaneous injection. • Each group is tested for mice pain response time once every 5, 15, 30, 50, and 60 minute after administration, and the medicine is believed to be effective which response time beyond 1 min. • Mice Writhing Assay • I-6 is administered via subcutaneous injection, then 0.6% acetic acid solution (10 ml/kg) is administered after 30 min, and the number of the mice writhing within 15 min is recorded. 3.
(In general: In hot-plate and tail-flick tests a longer latency is read as antinociception.)

Data set [4] concerns Kuming mice. Description: Analgesic tolerance test (hot plate, 9 days administration). Type of data set: in vivo. To be noted: I-6 25 μg/kg subcutaneous injection Day 1-9, hot plate. As for the experimental part:
Kuming mice (18-20 g, male) are selected for test, and divided into physiological saline group, morphine group, and I-6 group.
physiological saline group: subcutaneous administration, 0.2 mL for each mice.
Morphine group: Day 1-3, subcutaneous injection, 7 mg/kg • Day 4-7, subcutaneous injection, 10 mg/kg • Day 8-9, subcutaneous injection, 15 mg/kg I-6 group: Day 1-9, subcutaneous injection, 25 μg/kg
Hot plate method in mice is adopted as model, administration lasts for 9 days, analgesic effects before and after administration are determined every day, and if analgesic effect is attenuated after continuous administration of 3 days, the drug concentration will be increased, and if analgesic effect don't change, the drug concentration will not be changed.

The test system of data set [5] is Kuming mice. As to the kind of experiment: Influence of compound I-6 on physical dependence caused by morphine. Type of data set: in vivo. To be noted: I-6 300 μg/kg peritoneally 10 min before morphine every day. As for the experimental part: Kuming mice (18-20 g, male) are selected and divided into physiological saline group, morphine group, and I-6+morphine group.
physiological saline group: subcutaneous injection, 0.2 mL for each mouse, continuous administration for 10 days.
as §1
I-6+morphine group: subcutaneous injection of morphine according to 20, 40, 60, 80, 100 mg/kg, continuous administration for 10 days, two injections per day at 8 hours interval, administration with escalating concentration, and 100 mg/kg is maintained from the fifth injection until Day 10; 300 μg/kg of compound I-6 is administered peritonally 10 min before administration of morphine every day.
2 hours after the end administration on Day 10, each group is peritoneally administered with Naloxone 3 mg/kg, and jump times and weight reduction of mice within 20 min in each group are observed.

Data set [6] has as its system Kuming mice. Description: Mice writhing assay (acetic acid) analgesic test. Type of data set: in vivo. To be noted: subcutaneous injection, 0.6% acetic acid after 30 min, writhing within 15 min. As for the experimental part:
as §7, §8
For orientation: Writhing tests count abdominal constrictions after an irritant is injected.

The next data set has as its target μ-opioid receptor (Homo sapiens, UniProt P35372). As to the kind of experiment: Radioligand receptor binding assay, competition with [3H]diprenorphine, μ-receptor. As for the experimental part:
as §4, §5, §6

As usually defined, the LD50 is the dose expected to kill half of the subjects tested. For orientation: Ki means a dissociation constant, usually derived from enzyme kinetics or from competition with a known ligand. A word on the IC50: it is the concentration at which inhibition is half-maximal. Read a low IC50 as greater potency in that assay. A word on the inhibition: it is the share of the control response that was lost under treatment. In the case of `O=C1CC(C(=O)N2CCc3ccccc3C2CN2CCCC2)c2cc(Cl)ccc21` (stereo not shown) [I-6, 1-(pyrrolidine-1-methyl)-2-(6-chloro-2,3-dihydro-inden-3-keto-1-carbonyl)-1,2,3,4-tetrahydroisoquinoline], the “physical dependence after continuous administration” value in the data set on Kuming mice [1] is listed as “causes no physical dependence like morphine”. The “influence on drinking, feeding, excreting, activities and hair color” value in the data set on Kunming mice was “no influence”. Further, the LD50 at 2 weeks in data set [2] worked out at 40.1 mg/kg. Besides, the Ki at κ-opioid receptor (Ki=IC50/(1+[L]/Kd)) stood at 0.0299 nM; on μ-opioid receptor (Ki=IC50/(1+[L]/Kd)), 668 nM. The same compound came in with a dpm on κ-opioid receptor (competition binding with κ-receptor, compound at 1 × 10^−5 M, [3H]diprenorphine 0.5 nM) of 201.00 dpm. Also, the IC50 came to 0.105 nM at κ-opioid receptor (competition binding, κ-opioid receptor) and 2000 nM at μ-opioid receptor (competition binding, μ-opioid receptor). Also, the inhibition at 10 µM at κ-opioid receptor (compound at 1 × 10^−5 M, read-out: inhibition rate %) turned out to be 100%. In addition, in the data set with Kuming mice [3] (mice hot plate method and mice writhing method), the “analgesic efficacy compared with morphine” value is reported as “powerful analgesic efficacy”. Further, in the data set on Kuming mice [3] (subcutaneous injection, hot plate 55° C., value with range in brackets), the “Analgesic experiment result, Mice hot plate method” value is 25.000(18.675-33.467) ug/kg. In the data set on Kuming mice [4], the analgesic tolerance result is “does not produce significant tolerance phenomena”. For the same compound, in the data set on Kuming mice [5] (10 days), the “effect on physical dependence caused by morphine” value is listed as “can resist physical dependence caused by morphine”. The “jump times of Naloxone-induced mice” value in the data set on Kuming mice [5] (Naloxone 3 mg/kg on Day 10) is listed as “significantly reduce jump times”. Moreover, the “Analgesic experiment result, Mice writhing assay” value in the data set with Kuming mice [6] was 3.313(1.775-6.183) ug/kg. For the same compound, at μ-opioid receptor (ratio of μ Ki to κ Ki), the “receptor selectivity μKi/κKi” value was 22341.
